The text below walks through data of ChEMBL document CHEMBL5252565, “Advances in research on 3C-like protease (3CLpro) inhibitors against SARS-CoV-2 since 2020” (RSC Med Chem, 2023).

The target of series [1] is Trypsin (Homo sapiens, UniProt P07477+P07478+P35030). Kind of series: Inhibition of human Trypsin using Z-Phe-Arg-AMC as substrate incubated for 30 mins by FRET assay. The series is classed as protein assay.
Series [2] concerns SARS-CoV-2. Kind of series: Antiviral activity against SARS-CoV-2 infected in African green monkey Vero E6 cells. The series is classed as functional, organism-based. Conditions: Severe acute respiratory syndrome coronavirus 2, Vero C1008.
Series [3] has as its target T1, Caspase-3 (Homo sapiens, UniProt P42574).
T1 sequence (P42574 whole entry): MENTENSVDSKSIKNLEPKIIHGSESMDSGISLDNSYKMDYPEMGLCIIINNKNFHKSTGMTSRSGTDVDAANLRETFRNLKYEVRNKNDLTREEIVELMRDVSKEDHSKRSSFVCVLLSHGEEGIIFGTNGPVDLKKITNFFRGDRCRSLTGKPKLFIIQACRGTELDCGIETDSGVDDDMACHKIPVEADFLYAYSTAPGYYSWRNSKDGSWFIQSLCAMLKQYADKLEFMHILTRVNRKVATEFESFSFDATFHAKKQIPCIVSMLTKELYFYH
Kind of series: Inhibition of human caspase 3 using Z-Phe-Arg-AMC as substrate incubated for 30 mins by FRET assay.

Series [4] concerns SARS-CoV-2. Kind of series: Antiviral activity against SARS-CoV-2 infected in […] Caco-2 cells. It is filed as functional, organism-based. Conditions: Severe acute respiratory syndrome coronavirus 2, Caco-2.
The target of series [5] is T2, Calpain1/2 (Homo sapiens, UniProt P17655+P07384).
T2 sequence (P17655 whole entry): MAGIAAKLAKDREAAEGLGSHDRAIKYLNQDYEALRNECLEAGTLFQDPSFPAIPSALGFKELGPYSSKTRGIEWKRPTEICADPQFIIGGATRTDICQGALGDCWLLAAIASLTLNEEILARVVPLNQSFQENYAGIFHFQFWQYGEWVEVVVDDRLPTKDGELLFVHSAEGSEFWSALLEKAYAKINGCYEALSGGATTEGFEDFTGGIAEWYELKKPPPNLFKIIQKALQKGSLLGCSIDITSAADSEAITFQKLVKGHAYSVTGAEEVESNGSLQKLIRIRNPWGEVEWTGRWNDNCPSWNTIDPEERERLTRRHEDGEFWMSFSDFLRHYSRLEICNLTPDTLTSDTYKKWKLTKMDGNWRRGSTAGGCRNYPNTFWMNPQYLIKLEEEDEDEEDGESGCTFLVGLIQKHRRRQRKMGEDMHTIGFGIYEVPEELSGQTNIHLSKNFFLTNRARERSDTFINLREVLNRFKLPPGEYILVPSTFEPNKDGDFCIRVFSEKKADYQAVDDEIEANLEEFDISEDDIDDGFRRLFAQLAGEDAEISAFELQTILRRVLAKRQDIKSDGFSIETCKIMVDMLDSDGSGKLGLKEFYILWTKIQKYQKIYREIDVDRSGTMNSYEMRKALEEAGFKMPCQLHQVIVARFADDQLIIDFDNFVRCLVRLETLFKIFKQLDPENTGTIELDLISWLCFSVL
T2 sequence (P07384 whole entry): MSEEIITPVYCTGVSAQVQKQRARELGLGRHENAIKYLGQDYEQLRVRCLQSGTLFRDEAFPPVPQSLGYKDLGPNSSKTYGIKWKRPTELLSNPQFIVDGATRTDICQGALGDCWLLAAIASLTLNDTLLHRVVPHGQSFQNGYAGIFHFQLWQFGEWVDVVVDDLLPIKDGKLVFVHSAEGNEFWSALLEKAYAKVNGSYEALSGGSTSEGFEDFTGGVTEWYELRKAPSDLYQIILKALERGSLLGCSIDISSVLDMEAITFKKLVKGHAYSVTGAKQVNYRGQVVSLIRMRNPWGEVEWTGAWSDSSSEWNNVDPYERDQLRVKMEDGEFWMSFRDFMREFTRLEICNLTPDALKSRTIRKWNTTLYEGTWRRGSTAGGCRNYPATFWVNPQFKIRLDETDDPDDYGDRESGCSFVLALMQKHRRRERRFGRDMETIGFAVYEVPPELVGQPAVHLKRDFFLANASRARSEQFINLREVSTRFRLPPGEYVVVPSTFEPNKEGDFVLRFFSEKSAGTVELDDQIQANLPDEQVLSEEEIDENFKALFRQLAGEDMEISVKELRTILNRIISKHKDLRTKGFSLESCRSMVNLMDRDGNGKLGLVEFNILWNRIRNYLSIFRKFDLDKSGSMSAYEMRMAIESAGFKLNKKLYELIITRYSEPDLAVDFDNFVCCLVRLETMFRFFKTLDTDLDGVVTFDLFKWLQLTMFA
Kind of series: Inhibition of human calpain using Z-Phe-Arg-AMC as substrate incubated for 30 mins by FRET assay. It is filed as protein assay.

The nature of series [6]: Inhibition of human cathepsin using Z-Phe-Arg-AMC as substrate incubated for 30 mins by FRET assay.
The species entered for series [7] is Homo sapiens. Kind of series: Antiviral activity against SARS-CoV-2 infected in human A549-ACE2 cells. It is filed as functional, cell-based.
Series [8] concerns the target T3, Replicase polyprotein 1ab (Severe acute respiratory syndrome coronavirus 2, UniProt P0DTD1). The series is described as follows: Inhibition of SARS-CoV-2 3CL protease expressed in escherichia coli measured after 24 hrs by SDS-PAGE.
The species named for series [9] is Homo sapiens. The series is described as follows: Antiviral activity against SARS-CoV-2 infected in human A549-ACE2 cells by immunofluorescence microscopic technique. The series is classed as functional, cell-based.
Series [10] can be described thus: Oral bioavailability in mouse by LC-MS/MS analysis. Conditions: in vivo. The series is classed as ADME, organism-based.
The target in series [11] is T3, Replicase polyprotein 1ab. The series is described as follows: Inhibition of SARS-CoV-2 HKU-001a 3CL protease.
A short description of series [12]: Oral bioavailability in Beagle dog by LC-MS/MS analysis. The series is classed as ADME, organism-based, Canis lupus familiaris. The following applies: in vivo.
A short description of series [13]: Oral bioavailability in Sprague-Dawley rat by LC-MS/MS analysis. It is filed as ADME, organism-based. Conditions: in vivo.
The subject of series [14] is SARS-CoV-2. Kind of series: Antiviral activity against SARS-CoV-2 infected in African green monkey Vero E6 cells assessed as reduction in infection measured after 24 hrs by Plaque assay. It is filed as functional, organism-based. The following applies: Severe acute respiratory syndrome coronavirus 2, Vero C1008, 24 h.
Series [15] addresses T3, Replicase polyprotein 1ab. The series is described as follows: Inhibition of SARS-CoV-2 3CL protease.

As for `C[C@H](NC(=O)[C@@H](c1cccnc1)N(C(=O)C(Cl)Cl)c1ccc(-c2ccccc2)cc1)c1ccccc1`, the IC50 in series [1], in series [3], in series [5] and in series [6] was more than 20 µM throughout. Further, the concentration for a half-maximal effect (EC50) (in general, the midpoint of the concentration-response curve) in series [2] came out at 0.9 µM; in [4] it was 2.05 µM.

`Cc1ccc(NC(=O)c2ccc(CN3CCN(C)CC3)cc2)cc1Nc1nc(-c2cccnc2)cs1` [MASITINIB] gave an EC50 in series [7] of 3.2 µM.

With `CNC(=O)c1cc(Br)cc([N+](=O)[O-])c1N[C@@H]1CCCC[C@@H]1NC(=O)c1cccc2ccccc12`, in [8], half-maximal inhibition (IC50) required 0.072 µM. Further, in series [9], the midpoint of the response, the EC50, lay at 0.012 µM.

As for `[2H][C@](C(=O)N[C@@H](C)c1ccc(F)cc1)(c1cccnc1)N(C(=O)C(C)=O)c1ccc2c(c1)oc1ccccc12`, the bioavailability (usually dose-corrected exposure relative to a reference, in per cent) in [10] turned out to be 92.9%; in [12] it was 85.7%; in series [13] it was 31.9%. Also, in [11], the IC50 (usually the point on the concentration scale where inhibition reaches its midpoint) was determined as 0.0081 µM.

`O=C[C@H](C[C@@H]1CCNC1=O)NC(=O)[C@H](Cc1cccc(F)c1)NC(=O)c1cc2ccccc2[nH]1`: the IC50 in series [14] amounted to 0.72 µM.

In [15], `O=C[C@H](C[C@@H]1CCNC1=O)NC(=O)[C@@H]1[C@H]2CCC[C@H]2CN1C(=O)CCc1cc(F)cc(F)c1` returned an IC50 of 7.6 µM.
